Among the data in ChEMBL document CHEMBL1124380, “Synthesis and cytostatic activity of geiparvarin analogues” (1989) are IC50 values, retold here.

Values after ≈ are worked out from the molar mass of the structure shown.

What all share (type): functional
In one assay the test system is FM3A. The experiment in a line: Ability to inhibit murine FM3A tumor cell proliferation by 50%. As to conditions: Mus musculus, read-out: ID50 (the source's name).
A further assay concerns Raji. Description: Ability to inhibit human Raji tumor cell proliferation by 50%. As to conditions: read-out: ID50 (the source's name).
The next assay has as its system CCRF-CEM. The experiment in a line: Ability to inhibit human CEM tumor cell proliferation by 50%. Conditions: read-out: ID50 (the source's name).
The test system of another assay is L1210. Description: Ability to inhibit murine L1210 tumor cell proliferation by 50%. Conditions: Mus musculus, read-out: ID50 (the source's name).
In the next assay the test system is MT4. The experiment in a line: Ability to inhibit human MT-4 tumor cell proliferation by 50%. As to conditions: read-out: ID50 (the source's name).
Assay [1] is described as follows: Ability to inhibit human Molt/4F tumor cell proliferation by 50%. As to conditions: read-out: ID50 (the source's name).
In the next assay the test system is H9. Description: Ability to inhibit human H9 tumor cell proliferation by 50%. As to conditions: read-out: ID50 (the source's name).

For `C/C(=C\CO)CC1=CC(=O)C(C)(C)O1`, the IC50 in the assay on FM3A is 23.3 µg/mL (≈ 119 µM); in the assay with Raji it was 16.6 µg/mL (≈ 84.6 µM); with CCRF-CEM it was 10.3 µg/mL (≈ 52.5 µM); in the assay with L1210 it was 15.8 µg/mL (≈ 80.5 µM); with MT4, 3.05 µg/mL (≈ 15.5 µM); in assay [1], 15.2 µg/mL (≈ 77.5 µM). Also, the IC50 in the assay with H9 worked out at 9.13 µg/mL (≈ 46.5 µM).
Consider `CC(C)CC1=CC(=N)C(C)(C)O1`, for which the IC50 in the assay on FM3A was 33 µg/mL (≈ 197 µM); with Raji, greater than 100 µg/mL; with CCRF-CEM it was greater than 100 µg/mL; in the assay on L1210, greater than 100 µg/mL; in the assay on MT4, greater than 100 µg/mL; in assay [1], greater than 100 µg/mL. Further, the IC50 in the assay on H9 was greater than 100 µg/mL.
`CCCCCC1=CC(=N)C(C)(C)O1`: the IC50 in the assay with FM3A was 24.2 µg/mL (≈ 133 µM); in the assay on Raji it was greater than 100 µg/mL; in the assay with CCRF-CEM it was greater than 100 µg/mL; in the assay on L1210, 98.3 µg/mL (≈ 542 µM); in the assay on MT4, greater than 100 µg/mL; in assay [1] it was greater than 100 µg/mL. The IC50 with H9 was greater than 100 µg/mL.
Turning to `COc1ccccc1C1=CC(=O)C(C)(C)O1`, the IC50 worked out at 31.7 µg/mL (≈ 145 µM) with FM3A; 89.1 µg/mL (≈ 408 µM) in the assay with Raji; 66.1 µg/mL (≈ 303 µM) with CCRF-CEM; 40.4 µg/mL (≈ 185 µM) with L1210; 30.4 µg/mL (≈ 139 µM) in the assay on MT4; 53.3 µg/mL (≈ 244 µM) in assay [1]. In addition, the IC50 in the assay on H9 stood at 63.9 µg/mL (≈ 293 µM).
As to `C/C(=C\COc1ccc2ccc(=O)oc2c1)C1=CC(=O)C2(CCCCC2)O1`, the IC50 with FM3A was 6.61 µg/mL (≈ 18 µM); in the assay with Raji, 5.43 µg/mL (≈ 14.8 µM); in the assay with CCRF-CEM, 2.72 µg/mL (≈ 7.42 µM); in the assay with L1210, 1.82 µg/mL (≈ 4.97 µM); with MT4 it was 2.1 µg/mL (≈ 5.73 µM); in assay [1], 12.7 µg/mL (≈ 34.7 µM). In the assay with H9, the IC50 worked out at 2.08 µg/mL (≈ 5.68 µM).
On to `O=C1C=C(c2ccccc2)OC1`, for which the IC50 in the assay on FM3A came out at 31.4 µg/mL (≈ 196 µM); with Raji, 50.1 µg/mL (≈ 313 µM); in the assay on CCRF-CEM, 30.2 µg/mL (≈ 189 µM); with L1210, 45.8 µg/mL (≈ 286 µM); in the assay on MT4, 31.7 µg/mL (≈ 198 µM); in assay [1], 31.2 µg/mL (≈ 195 µM). In the assay on H9, the IC50 came to 38.6 µg/mL (≈ 241 µM).
Regarding `CC(C)CC1=CC(=N)C(C)(C)O1.O=C(O)C(=O)O`, the IC50 with FM3A is 33.2 µg/mL; with Raji, greater than 100 µg/mL; with CCRF-CEM, greater than 100 µg/mL; in the assay with L1210 it was greater than 100 µg/mL; with MT4, greater than 100 µg/mL; in assay [1], greater than 100 µg/mL. In addition, the IC50 in the assay on H9 is greater than 100 µg/mL.
Regarding `CCC1OC(/C(C)=C/COc2ccc3ccc(=O)oc3c2)=CC1=O` (centres undefined), the IC50 in the assay with FM3A worked out at 17.2 µg/mL (≈ 52.7 µM); in the assay on Raji, 2.43 µg/mL (≈ 7.45 µM); with CCRF-CEM it was 3.27 µg/mL (≈ 10 µM); in the assay on L1210, 9.77 µg/mL (≈ 29.9 µM); in the assay with MT4, 1.63 µg/mL (≈ 4.99 µM); in assay [1] it was 2.84 µg/mL (≈ 8.7 µM). Further, in the assay with H9, the IC50 is 4.1 µg/mL (≈ 12.6 µM).
With `CC1=CC(=N)C(c2ccccc2)(c2ccccc2)O1`, the IC50 in the assay on FM3A was 25.4 µg/mL (≈ 102 µM); with Raji it was 24 µg/mL (≈ 96.3 µM); with CCRF-CEM, 29.3 µg/mL (≈ 118 µM); with L1210, 24.2 µg/mL (≈ 97.1 µM); in the assay on MT4 it was 26.5 µg/mL (≈ 106 µM); in assay [1], 25.3 µg/mL (≈ 101 µM). Besides, the IC50 in the assay with H9 is 30 µg/mL (≈ 120 µM).
Take `COc1ccccc1C1=CC(=O)CO1`: the IC50 with FM3A is greater than 100 µg/mL; in the assay with Raji, greater than 100 µg/mL; in the assay on CCRF-CEM it was greater than 100 µg/mL; in the assay with L1210, greater than 100 µg/mL; with MT4, 44.4 µg/mL (≈ 233 µM); in assay [1], greater than 100 µg/mL. Moreover, the IC50 with H9 stood at 66.3 µg/mL (≈ 349 µM).
For `C/C(=C\COc1ccc2ccc(=O)oc2c1)C1=CC(=O)C(C)(C)O1` [GEIPARVARIN], the IC50 with FM3A stood at 3.2 µg/mL (≈ 9.81 µM); with Raji, 2.19 µg/mL (≈ 6.71 µM); in the assay on CCRF-CEM, 2 µg/mL (≈ 6.13 µM); in the assay with L1210, 2.07 µg/mL (≈ 6.34 µM); in the assay with MT4, 0.32 µg/mL (≈ 0.981 µM); in assay [1] it was 2.84 µg/mL (≈ 8.7 µM). Also, in the assay with H9, the IC50 came to 1.97 µg/mL (≈ 6.04 µM).
With `C/C(=C\COc1ccc2ccc(=O)oc2c1)C1=CC(=O)C(C)O1` (centres undefined), the IC50 in the assay on FM3A came to 15.6 µg/mL (≈ 49.9 µM); in the assay with Raji, 10.4 µg/mL (≈ 33.3 µM); with CCRF-CEM it was 3.56 µg/mL (≈ 11.4 µM); with L1210, 7.05 µg/mL (≈ 22.6 µM); with MT4, 2.56 µg/mL (≈ 8.2 µM); in assay [1], 3.32 µg/mL (≈ 10.6 µM). The IC50 with H9 was 2.91 µg/mL (≈ 9.32 µM).
For `C/C(=C\COc1ccc2ccc(=O)oc2c1)C1=CC(=N)C2(CCCCC2)O1`, the IC50 was 15.8 µg/mL (≈ 43.2 µM) in the assay with FM3A; 23.5 µg/mL (≈ 64.3 µM) in the assay on Raji; 4.95 µg/mL (≈ 13.5 µM) in the assay on CCRF-CEM; 4.05 µg/mL (≈ 11.1 µM) in the assay with L1210; 4.93 µg/mL (≈ 13.5 µM) in the assay with MT4; 20.5 µg/mL (≈ 56.1 µM) in assay [1]. Also, the IC50 with H9 amounted to 14.2 µg/mL (≈ 38.9 µM).
In the case of `CCC1(C)OC(/C(C)=C/COc2ccc3ccc(=O)oc3c2)=CC1=O` (centres undefined), the IC50 came out at 2.96 µg/mL (≈ 8.7 µM) in the assay on FM3A; 2.59 µg/mL (≈ 7.61 µM) in the assay on Raji; 2.49 µg/mL (≈ 7.32 µM) in the assay with CCRF-CEM; 2.05 µg/mL (≈ 6.02 µM) with L1210; 0.53 µg/mL (≈ 1.56 µM) in the assay with MT4; 3.02 µg/mL (≈ 8.87 µM) in assay [1]. Besides, the IC50 in the assay with H9 is 2.15 µg/mL (≈ 6.32 µM).
`CCC1(C)OC(/C(C)=C/COc2ccc3ccc(=O)oc3c2)=CC1=N` (centres undefined): the IC50 came to 14.1 µg/mL (≈ 41.5 µM) in the assay on FM3A; 17.9 µg/mL (≈ 52.7 µM) in the assay with Raji; 3.57 µg/mL (≈ 10.5 µM) in the assay on CCRF-CEM; 4.71 µg/mL (≈ 13.9 µM) in the assay on L1210; 2.65 µg/mL (≈ 7.81 µM) with MT4; 3.17 µg/mL (≈ 9.34 µM) in assay [1]. In the assay on H9, the IC50 was determined as 2.58 µg/mL (≈ 7.6 µM).
Turning to `C/C(=C\COc1ccc2ccc(=O)oc2c1)C1=CC(=N)C(C)(C)O1`, the IC50 in the assay with FM3A amounted to 20.7 µg/mL (≈ 63.6 µM); in the assay on Raji, 26 µg/mL (≈ 79.9 µM); with CCRF-CEM it was 18.8 µg/mL (≈ 57.8 µM); in the assay on L1210 it was 18.4 µg/mL (≈ 56.6 µM); in the assay with MT4 it was 8.77 µg/mL (≈ 27 µM); in assay [1] it was 25.8 µg/mL (≈ 79.3 µM). Besides, in the assay with H9, the IC50 is 21.7 µg/mL (≈ 66.7 µM).
With `CC1(C)OC(c2ccccc2)=CC1=N`, the IC50 in the assay on FM3A was 24.7 µg/mL (≈ 132 µM); in the assay on Raji, greater than 100 µg/mL; with CCRF-CEM, greater than 100 µg/mL; with L1210, 66.4 µg/mL (≈ 355 µM); in the assay with MT4 it was 76.2 µg/mL (≈ 407 µM); in assay [1] it was greater than 100 µg/mL. In addition, the IC50 in the assay with H9 is greater than 100 µg/mL.
